Assay results as given in the supplement of paper PMC4862054.

Key:
Conditions in all cases: incubation time: 72 h
CAL-120 = assay: normalised response (% of control), CellTiter-Glo; higher = more viable cells (100 = DMSO, 0 = benzethonium chloride kill control)
Procedure: (§1)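 DSRT, 72 h incubation, CellTox Green / CellTiter-Glo readout. Signal is normalised to DMSO and benzethonium chloride controls. Value is the normalised response at the highest dose.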

MDA-MB-453 = assay: as above
Procedure: as §1

Hs578T = assay: as above
Procedure: as §1

BT-549 [1] = assay: as above
Procedure: as §1

SK-BR-3 = assay: as above
Procedure: as §1

HCC1599 = assay: as above
Procedure: as §1

MFM-223 [2] = assay: as above
Procedure: as §1

CAL-51 [3] = assay: as above
Procedure: as §1

HDQ-P1 = assay: as above
Procedure: as §1

MDA-MB-468 = assay: as above
Procedure: as §1

HCC1937 = assay: as above
Procedure: as §1

BT-474 [4] = assay: as above
Procedure: as §1

CAL-148 = assay: as above
Procedure: as §1

CAL-85-1 = assay: as above
Procedure: as §1

HCC1143 = assay: as above
Procedure: as §1

MCF-10A = assay: as above
Procedure: as §1

MDA-MB-231 = assay: as above
Procedure: as §1

DU-4475 = assay: as above
Procedure: as §1

BT-549 [5] = assay: normalised viability (% of control), CellTiter-Blue; higher = more viable cells (about 100 = DMSO control)
Summary of the method: (§2)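 Each value is normalised viability at a single listed concentration of the series. Breast cancer cell lines in 384-well plates were incubated 72 h with compound and read by CellTiter-Blue fluorescence at 560/590 nm, with vehicle set to 100 and a positive kill control to 0 on every plate.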

MFM-223 [6] = assay: as above
Summary of the method: as §2

CAL-51 [7] = assay: as above
Summary of the method: as §2

BT-474 [8] = assay: as above
Summary of the method: as §2

Row | SMILES | normalised response (CAL-120) [%] | normalised response (MDA-MB-453) [%] | normalised response (Hs578T) [%] | normalised response (BT-549 [1]) [%] | normalised response (SK-BR-3) [%] | normalised response (HCC1599) [%] | normalised response (MFM-223 [2]) [%] | normalised response (CAL-51 [3]) [%] | normalised response (HDQ-P1) [%] | normalised response (MDA-MB-468) [%] | normalised response (HCC1937) [%] | normalised response (BT-474 [4]) [%] | normalised response (CAL-148) [%] | normalised response (CAL-85-1) [%] | normalised response (HCC1143) [%] | normalised response (MCF-10A) [%] | normalised response (MDA-MB-231) [%] | normalised response (DU-4475) [%] | normalised viability (BT-549 [5]; 1 nM) [%] | normalised viability (BT-549 [5]; 100 nM) [%] | normalised viability (BT-549 [5]; 1000 nM) [%] | normalised viability (MFM-223 [6]; 1 nM) [%] | normalised viability (MFM-223 [6]; 100 nM) [%] | normalised viability (MFM-223 [6]; 1000 nM) [%] | normalised viability (CAL-51 [7]; 0.3 nM) [%] | normalised viability (CAL-51 [7]; 3 nM) [%] | normalised viability (CAL-51 [7]; 10 nM) [%] | normalised viability (BT-474 [8]; 1 nM) [%] | normalised viability (BT-474 [8]; 100 nM) [%] | normalised viability (BT-474 [8]; 1000 nM) [%] | normalised viability (BT-549 [5]; 10 nM) [%] | normalised viability (BT-549 [5]; 10000 nM) [%] | normalised viability (MFM-223 [6]; 10 nM) [%] | normalised viability (MFM-223 [6]; 10000 nM) [%] | normalised viability (CAL-51 [7]; 30 nM) [%] | normalised viability (CAL-51 [7]; 100 nM) [%] | normalised viability (BT-474 [8]; 10 nM) [%] | normalised viability (BT-474 [8]; 10000 nM) [%]
1 | Oc1ccc2c(c1)CC[C@H](c1ccccc1)[C@@H]2c1ccc(OCCN2CCCC2)cc1 [Lasofoxifene] (1000 nM) | 114 | 88.7 | 107 | 95.2 | 105 | 99.2 | 102 | 78.9 | 94.1 | 99.7 | 99.3 | 103 | 122 | 100 | 97.7 | 117 | 102 | 96.2 |  |  |  |  |  |  |  |  |  |  |  |  |  |  |  |  |  |  |  | 
2 | CN(C)c1nc(N(C)C)nc(N(C)C)n1 [Altretamine] (10000 nM) | 100 | 108 | 105 | 102 | 108 | 112 | 106 | 109 | 97.8 | 104 | 100 | 98.7 | 106 | 108 | 100 | 107 | 102 | 107 |  |  |  |  |  |  |  |  |  |  |  |  |  |  |  |  |  |  |  | 
3 | c1ccc2c(CCNc3ccc(Nc4ccncc4)cc3)c[nH]c2c1 [Serdemetan] (10000 nM) | 67.3 | 42.3 | 48.1 | 23.6 | 15.5 | 14.4 | 58 | 9.77 | 73.6 | 9.51 | 49.7 | 51.8 | 21.3 | 39.1 | 52.9 | 52.6 | 41 | 0.28 |  |  |  |  |  |  |  |  |  |  |  |  |  |  |  |  |  |  |  | 
4 | CCc1c2c(nc3ccc(OC(=O)N4CCC(N5CCCCC5)CC4)cc13)-c1cc3c(c(=O)n1C2)COC(=O)[C@]3(O)CC [Irinotecan] (10000 nM) | 70 | 102 | 86.9 | 49.1 | 47.4 | 29.8 | 96.5 | 34.8 | 73.3 | 23.2 | 70.9 | 69.5 | 26.4 | 63.6 | 60.1 | 68.2 | 84.8 | 41.8 |  |  |  |  |  |  |  |  |  |  |  |  |  |  |  |  |  |  |  | 
5 | CO[C@H]1C[C@@H]2CC[C@@H](C)[C@@](O)(O2)C(=O)C(=O)N2CCCC[C@H]2C(=O)O[C@H]([C@H](C)C[C@@H]2CC[C@@H](OP(C)(C)=O)[C@H](OC)C2)CC(=O)[C@H](C)/C=C(\C)[C@@H](O)[C@@H](OC)C(=O)[C@H](C)C[C@H](C)/C=C/C=C/C=C/1C [Ridaforolimus] (100 nM) | 64.8 | 62.8 | 69.6 | 54.8 | 56.9 | 108 | 68.3 | 62 | 79 | 56.7 | 69.3 | 81.5 | 58.8 | 66.8 | 67.1 | 85.1 | 88.4 | 72.8 |  |  |  |  |  |  |  |  |  |  |  |  |  |  |  |  |  |  |  | 
6 | COCC1(CO)C(=O)C2CCN1CC2 (stereo not given) [Prima-1 Met] (10000 nM) | 100 | 93.1 | 97.4 | 53.3 | 106 | 108 | 103 | 130 | 96.7 | 91.3 | 101 | 97.1 | 110 | 102 | 98 | 106 | 97.6 | 106 |  |  |  |  |  |  |  |  |  |  |  |  |  |  |  |  |  |  |  | 
7 | Oc1ccc2c(c1)CC[C@H](c1ccccc1)[C@@H]2c1ccc(OCCN2CCCC2)cc1 [Lasofoxifene] |  |  |  |  |  |  |  |  |  |  |  |  |  |  |  |  |  |  | 88.1 | 83.2 | 90.3 | 83.5 | 84 | 89.7 | 100 | 97.9 | 92.6 | 122 | 114 | 110 |  |  |  |  |  |  |  | 
8 | C=C1C[C@@H]2[C@H](CC[C@]3(C)C(=O)CC[C@@H]23)[C@@]2(C)C=CC(=O)C=C12 [Exemestane] |  |  |  |  |  |  |  |  |  |  |  |  |  |  |  |  |  |  |  |  | 108 |  |  | 101 |  | 101 |  |  |  | 93.7 | 83.5 | 85.9 | 90.6 | 108 | 95.8 | 86.5 | 111 | 103
9 | O=C(/C=C/c1cccc(S(=O)(=O)Nc2ccccc2)c1)NO [Belinostat] (10000 nM) | 7.76 | 2.73 | 7.71 | 17.8 | 0 | 5.36 | 26.1 | 44.5 | 30.4 | 8.88 | 20.5 | 5.7 | -0.03 | 6.45 | 12.4 | 16.1 | 2.16 | 5.73 |  |  |  |  |  |  |  |  |  |  |  |  |  |  |  |  |  |  |  | 
10 | NC(=O)c1ccc(I)c([N+](=O)[O-])c1 [Iniparib] (10000 nM) | 98.2 | 73.2 | 95.5 | 96.5 | 71.1 | 88 | 80 | 84.7 | 96.3 | 79 | 86.9 | 91 | 88.8 | 116 | 92.1 | 76.3 | 93.9 | 90.2 |  |  |  |  |  |  |  |  |  |  |  |  |  |  |  |  |  |  |  | 
11 | CN(C)c1nc(N(C)C)nc(N(C)C)n1 [Altretamine] |  |  |  |  |  |  |  |  |  |  |  |  |  |  |  |  |  |  |  |  | 78.4 |  |  | 98 |  | 113 |  |  |  | 134 | 89.3 | 93.4 | 96.2 | 89.6 | 108 | 105 | 117 | 138
